In patent US11628172B2, “Methods of treating chronic lymphocytic leukemia using 2-(2,6-dioxopiperidin-3-yl)-4-((2-fluoro-4-((3-morpholinoazetidin-1-yl)methyl)benzyl)amino)isoindoline-1,3-dione” (Celgene Corporation, priority 2019, dated 2023):

Columns and labels:
CII CLL cell line = assay: Cell proliferation and viability assay (384-well flow cytometry, Annexin V/DRAQ7), CII; format: cell-based; conditions: 120 hours
Method: (§1) The following are examples of cell-based assays that can be used to determine the anti-proliferative activity and apoptotic effect of compounds described herein using exemplary CLL cell lines (Table 3). The in vitro growth inhibitory activity of Compound 1 described herein was evaluated using a 384-well flow cytometry assay.
(§2) The cell lines were plated under the conditions shown in Table 3 in 384-well flat bottom plates and incubated with increasing concentrations of compound ranging from 0.00015 to 10 μM or dimethyl sulfoxide (DMSO) control. The final concentration of DMSO was 0.1% (v/v). Following the addition of Compound 1 or DMSO and incubation for 120 hours, cell number and cell death were analyzed by flow cytometry (Attune®, Thermo Fisher) using Annexin V and the live-cell impermeant DNA dye, DRAQ7. […]
(§3) Flow cytometry data analysis was then performed using the Flow Jo_v10 software to determine the number of viable cells (Annexin V and DRAQ7 double negative staining cells) and percentage of apoptotic cells (Annexin V positive cells) for each condition. […] The IC50 (50% inhibitory concentration) and Emax (maximum efficacy achieved) values were then calculated by performing nonlinear regression curve fitting using log (inhibitor) vs. normalized response—variable slope analysis on GraphPad Prism 7.03. […]

PGA1 CLL cell line = assay: Cell proliferation and viability assay (384-well flow cytometry, Annexin V/DRAQ7), PGA1; format: cell-based; conditions: 120 hours
Method: as §1, §2, §3

Mec2 CLL cell line = assay: Cell proliferation and viability assay (384-well flow cytometry, Annexin V/DRAQ7), Mec2; format: cell-based; conditions: 120 hours
Method: as §1, §2, §3

[1] = tested on: primary CLL cells from patient-derived blood (CD5+CD19+ tumor cells); assay: Compound 1 in combination with obinutuzumab in B-cell CLL patient cells (ex vivo co-culture, flow cytometry, Caspase3); format: cell-based, human; conditions: single agent (Cpd1 DRC with DMSO, or obinutuzumab alone), 144 h, apoptosis (Caspase 3), DMSO baseline subtracted
Method: Obinutuzumab (GA101) is a humanized, glycoengineered type 2 antibody targeted against CD20. […] The effect of treatment with Compound 1 in combination with obinutuzumab on the proliferation and survival of CLL B cells was assessed utilizing an ex vivo model where primary CLL cells from patient-derived blood were stimulated to proliferate with 10% fetal bovine serum (FBS), 5 ng/mL recombinant human interleukine-4 (rh IL-4), 10 ng/mL recombinant human interleukine-10 (rh IL-10) and co-cultured with fibroblast expressing surface CD154 (CD40L) in a 96 well plate format.
Peripheral blood mononuclear cells (PBMCs) from CLL patients (Table 7) containing 52%-86% of CD5^+CD19^+ tumor cells were cultured at a density of 0.06-0.1×10^6 cells/well on a monolayer of CD154-expressing fibroblasts at a density of 0.09×10^6 cells/well in 96-well plates in RPMI 1640 medium supplemented with 10% FBS, 5 ng/mL rh IL-4 and 10 ng/mL rh IL-10. The cells were treated with vehicle control (0.1% DMSO) or increasing concentrations of Compound 1 ranging from 0.0001 to 1 μM and GA101 at concentrations ranging from 8 ng/mL to 5 ug/mL across all the different concentrations of Compound 1. After 144 h of treatment with both the agents, flow cytometric analysis was used to determine the number of tumor cells that were viable or apoptotic.
The tumor cell count was assessed by staining the patient PBMCs in each condition with tumor cell surface markers CD5 & CD19 along with Live/Dead fixable dye to exclude the dead cells and followed by intracellular staining for Caspase3 antibody to identify the apoptotic cells and was measured by flow cytometry (Attune NxT, Thermo Fisher). The live tumor cell count for each condition was calculated by normalizing to the precision count beads added to each sample.
The live tumor cell count was then normalized to the DMSO control (considered as 100% viable) to calculate the percentage of viable cells remaining after treatment. The normalized percentage of tumor cells was then represented as a heat map using Graph Pad Prism 8.0.0 to indicate the degree of tumor toxicity for each of the combinations (FIG. 1). Based on the data shown in FIG. 1, synergy/additivity calculations were performed using the HSA and Bliss Independence Model.
For apoptosis analysis, the percentage of apoptosis combining both “early” (Caspase 3 positive and Live-Dead fixable dye negative) and “late” apoptosis (Caspase 3 and Live-Dead fixable dye positive) cell gates subtracting the baseline DMSO value was graphed using GraphPad Prism 8.0.0.0. The Ymax (maximal percentage of apoptosis achieved) values from apoptosis curves were calculated by performing a nonlinear regression curve fitting using log(agonist) vs. normalized response—Variable slope analysis and identifying the maximum value on GraphPad Prism 8.0.0 (Table 8).

**Q.** What does the source list for `O=C1CC[C@H](N2C(=O)c3cccc(NCc4ccc(CN5CC(N6CCOCC6)C5)cc4F)c3C2=O)C(=O)N1` [Compound 1, (S)-2-(2,6-dioxopiperidin-3-yl)-4-((2-fluoro-4-((3-morpholinoazetidin-1-yl)methyl)benzyl)amino)isoindoline-1,3-dione]?
**A.** % Viable Cells Emax (percentage of tumor cells remaining) (CII CLL cell line): 78.23%; % Viable Cells Emax (percentage of tumor cells remaining) (PGA1 CLL cell line): 69.21%; % Viable Cells Emax (percentage of tumor cells remaining) (Mec2 CLL cell line): 25.55%; Ymax of Pt 11 (%) ([1]; Pt 11): 18.81%; Ymax of Pt 12 (%) ([1]; Pt 12): 19.11%; Ymax of Pt 13 (%) ([1]; Pt 13): 29.40%; Ymax of Pt 14 (%) ([1]; Pt 14): 24.11%
